# Read-outs that look alike come from different tables or passages of the source.
# Columns and labels:
# [1] = test system: GR activity in the brain; assay: In situ hybridization of Gilz mRNA, Fkbp5 hnRNA, Nr3c1 and Nr3c2 in hippocampus and PVN; type: in vivo, C57Bl/6J mice
# Procedure: (§1) All studies involving animals were approved by the institutional ethics committee on animal care and experimentation at the Leiden University Medical Center. The 8-week old male C57Bl/6J mice (Charles River) were housed in ventilated cages with a 12 h light:12 h darkness regime and ad libitum access to food and water. In the acute corticosterone exposure experiments, mice received a synthetic chow diet (Research Diets, New Brunswick, NJ, USA) containing vehicle or CORT125281 (6, 20 or 60 mg/kg/day, Corcept Therapeutics, Menlo Park, CA, USA) for 6 days. […] Mice were treated daily with vehicle, 60 mg/kg mifepristone (Corcept Therapeutics) or 60 mg/kg CORT125281 (dissolved in PBS with 0.1% Tween 80 and 0.5% hydroxypropylmethylcellullose, Corcept Therapeutics) via oral gavage for 5 days, after which mice were killed by CO2 inhalation. Throughout the experiment, body weight was monitored and body composition was determined with EchoMRI™ (Frankfurt, Germany). After 5 days, blood was collected from the lateral tail vain in paraoxon-coated capillaries after a 6-h fast. Plasma triglyceride, total cholesterol, free fatty acid, glucose and insulin levels were determined using commercially available kits (Roche; Instruchemie, Delfzijl, Netherlands and Crystal Chem, Zaandam, Netherlands). Blood concentrations of the major leukocyte classes, that is, lymphocytes, monocytes and eosinophils, were determined in whole blood using an automatic veterinary hematology analysis (Sysmex XT-2000iV; Goffin Meyvis, Etten-Leur, the Netherlands).
# For dual label in situ hybridization, frozen unfixed pituitaries were embedded in tissue-tek OCT (Sakura Finetek, Alphen aan den Rijn, Netherlands), sliced (12 µm) and collected on glass slides (Superfrost Plus, Thermo Fisher Scientific). Dual label in situ hybridization was performed using the QuantiGene ViewRNA ISH Tissue 2-Plex Assay (Thermo Fisher Scientific) and pictures were captured with a wide-field microscope (DM6B, Leica Microsystems). For 4-plex in situ hybridization, frozen, unfixed brain slices (12 µm) were collected on glass slides at bregma −0.772 mm (PVN) and −1.532 mm (hippocampus). 4-plex in situ hybridization was performed using the RNAScope fluorescent multiplex assay and RNAscope 4-plex ancillary kit (Advanced Cell Diagnostics, Newark, CA, USA) and Opal fluorophores 520, 570, 620 and 690 (PerkinElmer). Pictures were captured with a confocal microscope (SP8 WLL, Leica Microsystems). All pictures were analysed with ImageJ Software (NIH).
# [2] = Quantification of serum and tissue CORT125281 concentration by LC-MS; type: in vivo, C57Bl/6J mice; settings: male, C57Bl/6J, mouse, oral, 60 mg/kg/day for 6 days, mice
# Procedure: as §1
# Compound levels were assessed against standard curves for CORT125281, ranging from 0.05–20 µM in each tissue. Tissues were weighed and water was added at three-fold the weight of each individual sample before homogenising. Internal standard (90 µL of 1 µM leucine enkephalin in acetonitrile) was added to all samples, standard curves and quality control spikes of CORT125281. After centrifugation, a fixed volume of supernatant was removed and pellets were dissolved in water. The samples were then analysed by LC-MS utilising a QTRAP 5500 mass spectrometer (Sciex, Warrington, UK), UPLC (Agilent) instrument, equipped with a C18 Cortecs UPLC analytical column (2.1 × 30 mm, […]). […] The gradient started with a mobile phase composition of 5% B which was held for 0.1 min. The percentage of B was then linearly ramped to 95% over 0.1 to 1.2 min and then held constant up to 1.3 min. […] The mass spectrometer was set to operate in negative ion mode. The ion source temperature was 650°C, the ion spray voltage was −4000 V, gases 1, 2 and curtain gas were 30 V, 60 V and 35 V, respectively, and the entrance and collisition exit potential were −10 V and −13 V. The collision energy and declustering potential used for the multiple reaction monitoring (MRM) transitions of CORT125281 were −28 V and −60 V, the Q1 and Q3 masses were 588.649 Da and 248.800 Da, while the collision energy and declustering potential for the internal standard were −40 V and 0 V and the Q1 and Q3 masses 554.2 Da and 235.9 Da.
# [3] = biological target: T1, human GR ligand-binding domain (Homo sapiens, UniProt P04150); assay: MARCoNI peptide interaction profiling (coregulator-nuclear receptor interaction); type: biochemical; settings: CORT125281 1 µM
# T1 construct: purchased Invitrogen PV4689
# T1 sequence (P04150 524-758 limits assumed): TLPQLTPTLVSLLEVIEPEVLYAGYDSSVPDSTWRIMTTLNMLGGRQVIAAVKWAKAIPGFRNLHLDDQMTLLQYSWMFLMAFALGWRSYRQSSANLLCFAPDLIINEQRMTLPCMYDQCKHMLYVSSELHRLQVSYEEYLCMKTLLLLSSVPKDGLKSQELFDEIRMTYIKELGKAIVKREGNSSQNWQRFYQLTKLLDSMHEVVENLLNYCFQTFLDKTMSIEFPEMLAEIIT
# Procedure: As the assay utilizes human GR, experiments were performed with cortisol rather than corticosterone. […] Incubation was performed at 20°C in a PamStation96 (PamGene International, Den Bosch, Netherlands) for 40 min. Receptor binding to each peptide on the array, reflected by a fluorescent signal, was quantified by analysis of .tiff images using BioNavigator software (PamGene International).
# [4] = test system: male C57Bl/6J mice; assay: Subchronic corticosterone exposure (pellet): body composition, organ weights, leukocytes, plasma insulin, glucose, lipids; type: in vivo; settings: corticosterone pellet 5 days, 60 mg/kg/day oral gavage
# Procedure: as §1
# In both acute and subchronic corticosterone experiments, relevant tissues (including quadriceps muscle, interscapular BAT, gonadal white adipose tissue (WAT), adrenals, spleen, thymus, pituitary and hippocampus) were collected to determine tissue weight and/or for further molecular analysis.
# [5] = test system: male C57Bl/6J mice; assay: Body weight, food intake and immune cell counts under CORT125281 via the diet; type: in vivo; settings: for body weight / food intake: 6 days
# Procedure: as §1
# [6] = test system: GR; design: method as in Lahteenmaki et al. 1987, Kroon et al. 2018; settings: half maximal inhibitory concentration of the GR antagonist; ref Lahteenmaki et al. 1987, Kroon et al. 2018; cited from earlier work
# [7] = 20 mg/kg/day CORT125281 6 days, corticosterone injection 1 h
compound,measurement,setting,value
Cn1ncc(S(=O)(=O)N2CC[C@H]3Cc4c(cnn4-c4ccc(F)cc4)C[C@]3(C(=O)c3cc(C(F)(F)F)ccn3)C2)n1 [CORT125281],Nr3c1 (Gr) mRNA levels in the hippocampus,[1]; [7],Neither corticosterone nor CORT125281 affected
same,Nr3c1 or Nr3c2 expression in the PVN,[1]; [7],Neither corticosterone nor CORT125281 affected
same,basal mineralocorticoid receptor (MR; Nr3c2) mRNA expression in the hippocampus,[1]; 6-20 mg/kg/day,increased
same,corticosterone-induced Fkbp5 hnRNA and Gilz mRNA levels in the PVN,[1]; 6-20 mg/kg/day,had little effect
same,corticosterone induction of Gilz mRNA and Fkbp5 hnRNA in hippocampal subfields,"[1]; 6-20 mg/kg/day, corticosterone 1 h before tissue collection",did not prevent this induction
same,basal levels of Fkbp5 hnRNA in CA2 and CA3 regions,"[1]; 6-20 mg/kg/day, hippocampus",upregulated
same,Kp at 6 days,"[2]; BAT (brown adipose tissue) relative to plasma, read-out: tissue to plasma ratio, BAT",19.1
same,concentration at 6 days,"[2]; BAT (brown adipose tissue), BAT, read-out: CORT125281 level, BAT",4720 ng/g
same,Kp at 6 days,"[2]; WAT (white adipose tissue) relative to plasma, read-out: tissue to plasma ratio, WAT",46.7
same,Kp at 6 days,"[2]; brain (neocortex) relative to plasma, neocortex, read-out: tissue to plasma ratio, brain",1.8
same,concentration at 6 days,"[2]; gonadal WAT (white adipose tissue), gonadal WAT, read-out: CORT125281 level, WAT",12500 ng/g
same,Kp at 6 days,"[2]; liver relative to plasma, read-out: tissue to plasma ratio, liver",8
same,concentration at 6 days,"[2]; brain neocortex, read-out: CORT125281 level, brain",542 ng/g
same,concentration at 6 days,"[2]; liver, read-out: CORT125281 level, liver",2040 ng/g
same,concentration at 6 days,"[2]; plasma, read-out: CORT125281 level, plasma",419 ng/g
same,hierarchal clustering of ligand-induced GR-coregulator response profile,[3],clustered with that of mifepristone
same,number of coregulator motifs recruited compared to mifepristone,[3],tended to recruit fewer motifs
same,binding of corepressor motifs of NCOR1 and NCOR2 (SMRT) by ligand-GR complex,[3]; mifepristone 0.1 µM,only very modestly
same,HOMA-IR,[4],improved
same,corticosterone-induced alteration in body weight (BW) gain,[4],did not prevent
same,"corticosterone-induced hyperlipidaemia (plasma triglycerides, total cholesterol)",[4],seemed to modestly reduce
same,free fatty acid levels,[4],did not affect
same,glucose levels,[4],improved
same,lean mass (reduced by corticosterone),[4],not altered
same,thymus weight,[4],did not prevent
same,corticosterone-induced hyperinsulinemia,[4]; 6-h fast,partially prevented
same,"immune counts (WBC, lymphocytes, monocytes, eosinophils)","[5]; 60 mg/kg/day via diet 6 days, without excess corticosterone exposure",did not alter
same,body weight,[5]; 60 mg/kg/day via food,did not alter
same,food intake,[5]; 60 mg/kg/day via food,did not alter
same,body weight,[5]; 6 and 20 mg/kg/day via food,did not alter
same,food intake,[5]; 6 and 20 mg/kg/day via food,did not alter
same,IC50,[6],427 nM

# — PMC7274539, “The selective glucocorticoid receptor antagonist CORT125281 has tissue-specific activity” (The Journal of Endocrinology, 2020)
